# Measurements reported in patent publication US20240307334A1 (Lieber Institute, Inc., priority 2023, published 2024).
# Structures can show the parent of a compound that is named as a salt.
# How the values were obtained:
# [1] = tested on: Tcf4+/tr mouse model of PTHS; experiment: In vivo immunohistochemical (IHC) quantification of OPCs and OLs after two-week intraperitoneal dosing
# Description: The Tcf4^+/tr mouse model of PTHS is heterozygous for an allele encoding deletion of the DNA-binding domain of TCF4 (B6; 129-TCF4tmlZhu/J, stock number 013598, Jackson Laboratory). This mouse colony was backcrossed for at least six generations, maintained by The Lieber Institute for Brain Developments Animal Facility on a 12-h light/dark cycle and fed ad libitum. Tcf4^+/tr mouse samples were matched with samples from Tcf4^+/+ littermates, and sex was randomly selected in each genotype and age group. All procedures were performed in accordance with the National Institutes of Health Guide for the Care and Use of Laboratory Animals and approved by the Johns Hopkins University School of Medicine's Institutional Animal Care and Use Committee.
# (§1) The final pH was approximately 5.
# (§2) Mice were dosed at 1.0 mg/kg/day for 14 days with either Sob-AM2 or NMP/Kolliphor solution (vehicle).
# (§3) Cells were rinsed 1× with PBS and then fixed with 4% paraformaldehyde (PFA) for 5 minutes, following fixation cells were rinsed 3× with PBS. Similarly, mice were perfused with 20-30 mLs of 1× PBS, followed by 20-30 mLs of 4% PFA. Tissue was extracted and post fixed in 4% PFA on a rocker at 4° C. overnight. For immunostaining cells were rinsed 3× with 0.04% Tween 20 (Sigma 655204) while tissue (P42 mouse) was rinsed 3× with 0.4% Triton (Sigma X100). Cells were blocked in respective serum (10%) for 2 hours at room temperature on an orbital shaker. Following block, primary antibody was added in 2% serum in 0.04% Tween 20 for cells and 0.4% Triton-X 100 for tissue, and incubated overnight at 4° C. Following overnight incubation cells were rinsed 3× with 0.04% Tween 20 or 0.4% Triton respectively before adding the secondary antibody to incubate at room temperature for 2 hours. After incubation, cells were rinsed 3× in respective buffers and counterstained with DAPI (Invitrogen™, D1306). Visualization was carried out on a ZEISS LSM 700 Confocal. Imaging and quantification were performed blind to genotypes and conditions/treatments.
# Next, we assessed the effectiveness of Sob-AM2 in vivo by dosing Tcf4^+/tr mice and Tcf4^+/+ littermates intraperitoneally with either Sob-AM2 (1 mg/kg) or vehicle for two weeks followed by immunohistochemical (IHC) quantification (FIG. 7D).
# [2] = tested on: Tcf4+/tr mouse model of PTHS; experiment: Novel open field assay (locomotor activity and anxiety); type: in vivo; conditions: Tcf4+/tr mice
# Protocol: as §1, §2
# Locomotor activity and anxiety was assessed using Noldus PhenoTyper cages as previously shown. Mickelsen et al., 2019. Each cage is outfitted with two sets of cameras; one on the ceiling that faces the platform (35 cm×35 cm), and another pointed at the side of the cage. Mice were acclimated to the experimentation room in their home cages for at least 1 h. During acclimation, the Noldus EthoVision software was set-up to track movement for 30 total minutes. After acclimation, mice were placed in the center of the open field, opaque Plexiglas was placed on all four sides of the cage to obscure any visual cues, and the trial was started in the EthoVision software. After 30 min, the trial ended, and mice were placed back into their home cages. Noldus EthoVision software was used to determine distance traveled, time spent in center, and frequency of going to center.
# Next we treated Tcf4^+/tr mice and Tcf4^+/+ littermates with Sob-AM2 for 14 days and then assayed their behavior in the open field (FIG. 8A).
# [3] = following systemic administration, prodrug compared with sobetirome; cited from earlier work
# [4] = tested on: primary OPC/OL cultures from Tcf4+/tr and Tcf4+/+ mice; experiment: Primary OPC and OL cultures: immunocytochemistry quantification of OPCs and OLs normalized to Olig2; type: cell-based, mouse; conditions: for OPCs (PDGFRα+/Olig2+) / mature OLs (MBP+/Olig2+): Tcf4+/tr cells
# Protocol: Mice were dosed at 1.0 mg/kg/day for 14 days with either Sob-AM2 or NMP/Kolliphor solution (vehicle). Initial dosing was performed at P28 up until P42 when animals were then used for subsequent experiments.
# Primary OPC and OLs were obtained following a previous protocol^19. In brief, P2-P3 pups were dissociated and plated at a density of 10.0×10^3 cells/cm^2 in a 96 well ibidi plate coated in 0.1% polyethyleneimine (PEI) and 0.5-μg/mL laminin. Cells were plated and maintained in OPC proliferation media consisting of 1× StemPro Neural supplement (Thermo Fisher Scientific, A1050801), 1× Anti-Anti (Thermo Fisher Scientific, 15240-096), 10 ng/mL of Human FGF-basic (Peprotech, 100-18B) and 30 ng/mL rhPDGF-AA (R&D systems, 221-AA), with a half media exchange on DIV4.
# as §3
# Mei et al., 2014; Yoshida et al., 2020. Following a previously established protocol, Yoshida et al., 2020, we dissociated and plated OPCs from both Tcf4^+/+ and Tcf4^+/tr mice onto 96-well plates in OPC proliferation media. […] We performed blinded quantification of OPCs and OLs using antibodies against PDGFRα and MBP, respectively, and normalized our counts with the pan-OL marker OLIG2 (FIG. 1B).
# Hartley et al., 2019. We performed blinded quantification of OPCs and OLs using antibodies against PDGFRα and MBP, respectively, and normalized our counts with the pan-OL marker OLIG2 (FIG. 7A).
# [5] = tested on: Tcf4+/tr mouse model of PTHS; experiment: Transmission electron microscopy (TEM) of myelination in the corpus callosum; type: in vivo
# Protocol: 5% DMA (dimethylacetamide, Sigma 271012) was added up to the total volume needed. […] The mixture was shaken vigorously (vortex) and was ready for administration for intraperitoneal (1P) dosing at 10 mL/kg. The final pH was approximately 5. […] Initial dosing was performed at P28 up until P42 when animals were then used for subsequent experiments.
# After perfusion with a 0.1 M sodium cacodylate buffer, pH 7.2, containing 2% paraformaldehyde (freshly prepared from EM grade aqueous solution), 2% glutaraldehyde, and 3 mM MgCl2, p42 mouse brains were kept overnight in fixative. The next day brains were dissected in fixative and rinsed with sodium cacodylate buffer. Samples were then post-fixed in reduced 2% osmium tetroxide, 1.6% potassium ferrocyanide in buffer (2 hr) on ice in the dark. Following a dH2O rinse, samples were stained with 2% aqueous uranyl acetate (0.22 μm filtered, 1 hr, dark), dehydrated in a graded series of ethanol, propylene oxide and embedded in Eponate 12 (Ted Pella) resin. Samples were polymerized at 60° C. overnight. Thin sections, 60 to 90 nm, were cut with a diamond knife on the Reichert-Jung Ultracut E ultramicrotome and picked up with copper slot (1×2 mm) grids. Grids were stained with 2% uranyl acetate and observed with a Phillips CM120 TEM at 80 kV. Images were captured with an AMT XR80 CCD camera. Preparation of samples, TEM imaging, and quantification was performed blind to genotypes.
# Blinded to genotype and condition, TEM images were taken on the CC directly above the hippocampus from anatomically equivalent tissue sections in littermates. […] To further validate this, we quantified BCAS1+ cells (pre-myelinating OLs).
# multiple sclerosis = conditions: phase 2 clinical trial for multiple sclerosis; cited from earlier work
# [6] = Tcf4+/tr mice, Sob-AM2 1 mg/kg intraperitoneally for two weeks
# [7] = Sob-AM2 for 14 days, compared to vehicle-treated Tcf4+/tr littermates
# [8] = clemastine (1 μM) DIV7 to DIV14, compared to vehicle treated Tcf4+/tr cells
# [9] = Tcf4+/tr mice, clemastine 10 mg/kg intraperitoneally for two weeks (P28-P42)
# [10] = clemastine for 14 days, 30 min open field
# [11] = sobetirome (1 μM) 7 days to DIV14, compared to vehicle-treated Tcf4+/tr cells
structure (smiles),measurement,setting,value
CNC(=O)COc1cc(C)c(Cc2ccc(O)c(C(C)C)c2)c(C)c1 [Sob-AM2],OPCs (PDGFRα+/Olig2+),[1]; [6],significant decrease in OPCs
same,mature OLs (CC1+/Olig2+),[1]; [6],significant increase in mature OLs
same,frequency of entering the center of the open field,[2]; [7],reduction in the frequency of entering the center of the open field
same,total distance traveled,[2]; [7],significant reduction in total distance traveled
same,crossing of the blood brain barrier and distribution to the central nervous system,[3],better able to cross the blood brain barrier
"CN1CCC[C@@H]1CCO[C@](C)(c1ccccc1)c1ccc(Cl)cc1 [clemastine, clemastine fumarate]",OPCs (PDGFRα+/Olig2+),[4]; [8],significant reduction in OPCs
same,mature OLs (MBP+/Olig2+),[4]; [8],an increase in OLs
same,"total number of Olig2 positive cells, in vitro","[4]; all conditions, in vitro assay",no effect on the total number of Olig2 positive cells
same,number of BCAS1+ cells (pre-myelinating OLs),"[1]; Tcf4+/tr mice, 14 days clemastine",significantly increased the number of BCAS1+ cells
same,OPCs (PDGFRα+/Olig2+),[1]; [9],significant decrease in OPCs
same,mature OLs (CC1+/Olig2+),[1]; [9],significant increase in mature OLs
same,"total number of Olig2 positive cells, in vivo","[1]; all conditions, in vivo assay",no effect on the total number of Olig2 positive cells
same,density of uncompacted myelin,"[5]; Tcf4+/tr mice, clemastine vs vehicle-treated Tcf4+/tr mice",significantly increased the density of uncompacted myelin
same,proportion of uncompacted myelin,"[5]; Tcf4+/tr mice, relative to vehicle-treated Tcf4+/+ mice",normalized the proportion of uncompacted myelin
same,total myelin density,"[5]; Tcf4+/tr mice, two week clemastine treatment",unable to restore Tcf4^+/+ levels of total myelin density
same,proportion of compact myelin per image,[5]; clemastine Tcf4+/+ and clemastine Tcf4+/tr,less compaction overall
same,frequency of entering the center of the field,[2]; [10],reduction in the frequency of entering the center of the field
same,total distance traveled,[2]; [10],significant reduction in total distance traveled
same,remyelination in patients,multiple sclerosis,showed remyelination capabilities
Cc1cc(OCC(=O)O)cc(C)c1Cc1ccc(O)c(C(C)C)c1 [sobetirome],OPCs (PDGFRα+/Olig2+),[4]; [11],significant reduction in OPCs
same,mature OLs (MBP+/Olig2+),[4]; [11],an increase in OLs
